Results reported in patent US8362000B2, “Azetidinyl diamides as monoacylglycerol lipase inhibitors” (Janssen Pharmaceutica NV, priority 2009, dated 2013).
Residue numbers refer to the chain shown, from its start. Where two headings read alike, the source gives them in different places.

Legend:
MGL = target: T1, MGL (Rattus norvegicus, UniProt Q8R431); experiment: 2-AG accumulation assay in rat brain homogenate; assay type: biochemical; conditions: rat brain homogenate, 2-AG accumulation as percent of vehicle; for 2-AG accumulation, % of vehicle control at 0.1 µM: compound 0.1 μM, read-out: Rat Brain 2AG % VehCntrl (%) @ 0.1 μM; for 2-AG accumulation, % of vehicle control at 1 µM: compound 1 μM, read-out: Rat Brain 2AG % VehCntrl (%) @ 1 μM; for 2-AG accumulation, % of vehicle control at 10 µM: compound 10 μM, read-out: Rat Brain 2AG % VehCntrl (%) @ 10 μM
T1 construct: one g rat brain was homogenized using a Polytron homogenizer; from tissue; host or cells: rat brain homogenate
T1 sequence (Q8R431 1-303): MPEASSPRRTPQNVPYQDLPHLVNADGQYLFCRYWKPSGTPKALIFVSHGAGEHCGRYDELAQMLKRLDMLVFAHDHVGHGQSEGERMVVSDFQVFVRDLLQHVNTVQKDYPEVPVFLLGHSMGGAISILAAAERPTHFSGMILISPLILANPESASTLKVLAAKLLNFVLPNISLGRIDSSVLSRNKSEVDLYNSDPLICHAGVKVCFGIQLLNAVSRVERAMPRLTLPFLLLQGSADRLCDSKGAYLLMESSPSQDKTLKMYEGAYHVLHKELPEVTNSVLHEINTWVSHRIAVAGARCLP

[1] = target: T2, purified wild type MGL (wt-MGLL 6H-11-313) (Homo sapiens, UniProt Q99685)
T2 sequence (Q99685 1-303): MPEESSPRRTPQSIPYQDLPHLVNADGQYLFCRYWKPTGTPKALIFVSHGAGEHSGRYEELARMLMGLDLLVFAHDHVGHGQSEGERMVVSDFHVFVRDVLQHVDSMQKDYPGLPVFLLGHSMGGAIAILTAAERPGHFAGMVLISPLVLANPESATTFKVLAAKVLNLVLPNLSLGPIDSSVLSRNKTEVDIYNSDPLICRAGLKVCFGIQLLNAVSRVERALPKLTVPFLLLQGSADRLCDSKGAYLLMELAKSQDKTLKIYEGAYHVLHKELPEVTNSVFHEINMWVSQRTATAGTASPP

mutant MGL = target: T3, mutant MGL (Homo sapiens, UniProt Q99685, L169S/L176S); experiment: MGL ThermoFluor assay - mutant; assay type: binding; conditions: read-out: MGL mutant ThermoFluor Kd
T3 sequence (Q99685 1-303 L169S/L176S): T2 sequence (Q99685 1-303) with L169S, L176S

[2] = ThermoFluor concentration-response
[3] = ThermoFluor thermal stability binding assay

| SMILES | 2-AG accumulation, % of vehicle control at 1 µM (MGL) | Kd (mutant MGL; [2]) | Kd (mutant MGL; [3]) | further results |
| --- | --- | --- | --- | --- |
| O=C(c1nccs1)N1CC(N2CCN(C(=O)c3ccc(-c4ccccc4)cc3)C(c3ccccc3)C2)C1 (centres unmarked) [Cpd 43, 1-(Biphenyl-4-ylcarbonyl)-2-phenyl-4-[1-(1,3-thiazol-2-ylcarbonyl)azetidin-3-yl]piperazine] | – | – | – | 2-AG accumulation, % of vehicle control at 10 µM (MGL): 215%; IC50 [1]: 1260 nM |
| O=C(/C=C/c1ccc(SC(F)(F)F)cc1)N1CC(N2CCN(C(=O)c3cscn3)CC2)C1 [Cpd 648] | 126% | 146 nM | – | – |
| O=C(c1ccccc1)N1CCN(C2CN(C(=O)c3ccc(N4CCCCCC4)cc3)C2)CC1 [Cpd 41, 1-[4-({3-[4-(Phenylcarbonyl)piperazin-1-yl]azetidin-1-yl}carbonyl)phenyl]azepane] | – | 4 nM | – | 2-AG accumulation, % of vehicle control at 10 µM (MGL): 544% |
| O=C(c1ccccc1)N1CCN(C2CN(C(=O)c3ccc4c(ccn4-c4cccc(C(F)(F)F)c4)c3)C2)CC1 [Cpd 129, 1-[3-(Trifluoromethyl)phenyl]-5-({3-[4-(phenyl-carbonyl)piperazin-1-yl]azetidin-1-yl}carbonyl)-1H-indole] | 499% | – | 10 nM | – |
| O=C(c1ccccc1)N1CCN(C2CN(C(=O)c3ccc(OCc4cccc(Cl)c4)c(Cl)c3)C2)CC1 [Cpd 397, 1-[1-({3-Chloro-4-[(3-chlorobenzyl)oxy]phenyl}carbonyl)azetidin-3-yl]-4-(phenylcarbonyl)piperazine] | – | – | 33.3 nM | 2-AG accumulation, % of vehicle control at 10 µM (MGL): 243% |
| O=C(c1ccc(OCc2cccc(Cl)c2)cc1)N1CC(N2CCN(C(=O)c3cscn3)CC2)C1 [Cpd 960] | 896% | – | 36 nM | – |
| O=C(c1ccc(OCc2cccc(Br)n2)cc1)N1CC(N2CCN(C(=O)c3cscn3)CC2)C1 [Cpd 987] | 320% | – | 327 nM | – |
| O=C(c1ccccc1)N1CCN(C2CN(C(=O)c3ccc(-c4ccccc4)cc3Cl)C2)CC1 [Cpd 612] | 106% | 78 nM | – | – |
| O=C(c1ccc(Cc2ccccc2)cc1)N1CCN(C2CN(C(=O)c3ccccc3)C2)CC1 [Cpd 61, 1-[(4-Benzylphenyl)carbonyl]-4-[1-(phenylcarbonyl)azetidin-3-yl]piperazine] | – | 29 nM | – | 2-AG accumulation, % of vehicle control at 10 µM (MGL): 604% |
| O=C(c1ccc(-c2ccccc2)c(F)c1)N1CC(N2CCN(C(=O)c3cscn3)CC2)C1 [Cpd 170, 1-{1-[(2-Fluorobiphenyl-4-yl)carbonyl]azetidin-3-yl}-4-(1,3-thiazol-4-ylcarbonyl)piperazine] | 205% | 60.6 nM | – | – |
| O=C(c1cscn1)N1CCN(C2CN(C(=O)c3sc4cc(F)ccc4c3Cl)C2)CC1 [Cpd 929] | 301% | – | 20 nM | – |
| O=C(c1ccc(-c2ccccc2)cc1)N1CC(N2CCN(C(=O)c3ccco3)CC2)C1 [Cpd 6, 1-[1-(Biphenyl-4-ylcarbonyl)azetidin-3-yl]-4-(furan-2-ylcarbonyl)piperazine] | 554% | 3.6 nM | – | 2-AG accumulation, % of vehicle control at 0.01 µM (MGL; compound 0.01 μM, read-out: Rat Brain 2AG % VehCntrl (%) @ 0.01 μM): 75%; 2-AG accumulation, % of vehicle control at 0.1 µM (MGL): 238%; 2-AG accumulation, % of vehicle control at 10 µM (MGL): 623% |
| O=C(c1cscn1)N1CCN(C2CN(C(=O)c3cc4cc(C(F)(F)F)ccc4s3)C2)CC1 [Cpd 908] | 217% | – | 93 nM | – |
| Cc1nc(-c2cccc(Cl)c2)sc1C(=O)N1CC(N2CCN(C(=O)c3cscn3)CC2)C1 [Cpd 1381] | 604% | – | 83 nM | – |

Now from value to compound, other results behind:

| 2-AG accumulation, % of vehicle control at 1 µM (MGL) | Kd (mutant MGL; [2]) | Kd (mutant MGL; [3]) | SMILES | further results |
| --- | --- | --- | --- | --- |
| 706% | – | – | O=C(c1ccc(-c2ccc(Cl)c(Cl)c2)cc1)N1CC(N2CCN(C(=O)c3nccs3)CC2)C1 [Cpd 175, 1-{1-[(3′,4′-Dichlorobiphenyl-4-yl)carbonyl]azetidin-3-yl}-4-(1,3-thiazol-2-ylcarbonyl)piperazine] | 2-AG accumulation, % of vehicle control at 0.1 µM (MGL): 330%; IC50 [1]: < 5 nM |
| 488% | – | – | O=C(c1ccc2c(-c3ccc(C(F)(F)F)cc3)ncnc2c1)N1CC(N2CCN(C(=O)c3nccs3)CC2)C1 [Cpd 1086] | IC50 [1]: 9 nM |
| 698% | – | – | Cc1c(C(=O)N2CC(N3CCN(C(=O)c4nccs4)CC3)C2)nn(-c2ccc(Cl)cc2Cl)c1-c1ccc(Cl)cc1 [Cpd 1103] | IC50 [1]: 13 nM |
| 945% | – | – | O=C(c1ccc2c(c1)CCN(Cc1ccc(C(F)(F)F)cc1)C2)N1CC(N2CCN(C(=O)c3nccs3)CC2)C1 [Cpd 880] | IC50 [1]: < 5 nM |
| 591% | 35 nM | – | Cc1nc(COc2ccc(Cl)cc2)sc1C(=O)N1CC(N2CCN(C(=O)c3nccs3)CC2)C1 [Cpd 965] | – |
| 282% | – | 42 nM | O=C(c1nccs1)N1CCN(C2CN(C(=O)c3cc(-c4ccccc4)oc3C(F)(F)F)C2)CC1 [Cpd 1379] | – |
| 434% | – | 55.1 nM | O=C(c1ccc2c(c1)CCCN2S(=O)(=O)c1cccc(F)c1)N1CC(N2CCN(C(=O)c3nccs3)CC2)C1 [Cpd 368, 1-[(3-Fluorophenyl)sulfonyl]-6-({3-[4-(1,3-thiazol-2-ylcarbonyl)piperazin-1-yl]azetidin-1-yl}carbonyl)-1,2,3,4-tetrahydroquinoline] | – |
| 888% | – | 1 nM | O=C(c1ccc2c(c1)CCCN2Cc1ccccc1)N1CC(N2CCN(C(=O)c3nccs3)CC2)C1 [Cpd 370, 1-Benzyl-6-({3-[4-(1,3-thiazol-2-ylcarbonyl)piperazin-1-yl]azetidin-1-yl}carbonyl)-1,2,3,4-tetrahydroquinoline] | – |
| 378% | – | 81.6 nM | O=C(c1cc2cccc(C(F)(F)F)c2s1)N1CC(N2CCN(C(=O)c3nccs3)CC2)C1 [Cpd 328] | – |
| 892% | 3 nM | – | O=C(c1ccc2c(ccn2-c2ncc(F)cn2)c1)N1CC(N2CCN(C(=O)c3nccs3)CC2)C1 [Cpd 1147, 1-(5-Fluoropyrimidin-2-yl)-5-({3-[4-(1,3-thiazol-2-ylcarbonyl)piperazin-1-yl]azetidin-1-yl}carbonyl)-1H-indole] | – |
| 529% | 6.9 nM | – | O=C(c1ccc(Oc2ccc(Cl)c(Cl)c2)cc1)N1CC(N2CCN(C(=O)c3nccs3)CC2)C1 [Cpd 423, 1-(1-{[4-(3,4-Dichlorophenoxy)phenyl]carbonyl}azetidin-3-yl)-4-(1,3-thiazol-2-ylcarbonyl)piperazine] | – |
| 97% | – | 141 nM | O=C(c1ccc(OCc2cccnc2)c(Cl)c1)N1CC(N2CCN(C(=O)c3nccs3)CC2)C1 [Cpd 402, 1-(1-{[3-Chloro-4-(pyridin-3-ylmethoxy)phenyl]carbon-yl}azetidin-3-yl)-4-(1,3-thiazol-2-ylcarbonyl)piperazine] | – |
| 176% | – | 82.9 nM | O=C(c1ccc2c(c1)CCCN2C(=O)C1CC1)N1CC(N2CCN(C(=O)c3nccs3)CC2)C1 [Cpd 359, 1-(Cyclopropylcarbonyl)-6-({3-[4-(1,3-thiazol-2-ylcarbon-yl)piperazin-1-yl]azetidin-1-yl}carbonyl)-1,2,3,4-tetrahydroquinoline] | – |
| 493% | – | 25 nM | Cc1oc(-c2ccccc2)cc1C(=O)N1CC(N2CCN(C(=O)c3nccs3)CC2)C1 [Cpd 1378] | – |
| 563% | – | 16 nM | O=C(c1ccc2nc(-c3cccc(F)c3)sc2c1)N1CC(N2CCN(C(=O)c3nccs3)CC2)C1 [Cpd 1131] | – |
